Source: article PMC7127791 (Bioorganic & Medicinal Chemistry Letters, 2016)
“Also recorded” adds a separate entry of the source.

Key:
[1] = system: HEL cells; assay: Cytotoxicity; conditions: human embryonic lung fibroblast cells; microscopy
[2] = system: Para-influenza-3 virus; assay: organism not typed; type: cell-based, Parainfluenza-3 virus; conditions: Vero, read-out: Antiviral EC50 Para-influenza-3 virus
[3] = system: Reovirus-1; assay: organism not typed; type: cell-based; conditions: Vero, read-out: Antiviral EC50 Reovirus-1
[4] = system: HeLa cells; assay: Cytotoxicity; conditions: HeLa cervix carcinoma cells; microscopy
[5] = system: broad and diverse panel of DNA and RNA viruses; type: cell-based
[6] = system: MDCK cells; assay: Cytotoxicity; conditions: Madin-Darby canine kidney cells; microscopy
[7] = system: Vero cells; assay: Cytotoxicity; conditions: minimal cytotoxic concentration by microscopical inspection
[8] = system: varicella zoster virus; conditions: human
[9] = system: Punta Toro virus; type: cell-based
[10] = system: Punta Toro virus; type: cell-based; remark: listed apart in the source
[11] = system: Rift Valley fever virus (MP-12 strain); type: cell-based
[12] = system: other cell lines tested; assay: Cytotoxicity in the other mammalian cell lines tested; conditions: 100 μM compound concentration; cell lines other than Vero, HEL and MT4

Compound | Cytotoxicity MCC HEL [1] | EC50 [2] | EC50 [3] | Cytotoxicity MCC HeLa [4] | Cytotoxicity MCC MDCK [6] | Cytotoxicity MCC [7] | further results
CCOC(=O)C1=C(C)NC(=O)NC1c1ccccc1Cl (centres unmarked) [Compound 4b, Ethyl 4-(2-chlorophenyl)-6-methyl-2-oxo-1,2,3,4-tetrahydropyrimidine-5-carboxylate] | >100 µM | > 100 µM | > 100 µM | >100 µM | >100 µM | >100 µM | antiviral activity against the virus panel (in words) [5]: no antiviral activity
CCOC(=O)C1=C(C)NC(=O)NC1c1ccc(O)cc1 (centres unmarked) [Compound 4e, Ethyl 4-(4-hydroxyphenyl)-6-methyl-2-oxo-1,2,3,4-tetrahydropyrimidine-5-carboxylate] | >100 µM | > 100 µM | > 100 µM | >100 µM | >100 µM | >100 µM | 
CCOC(=O)C1=C(C)NC(=O)NC1c1ccc(N(C)C)cc1 (centres unmarked) [Compound 4g, Ethyl 4-[4-(dimethylamino)phenyl]-6-methyl-2-oxo-1,2,3,4-tetrahydropyrimidine-5-carboxylate] | >100 µM |  |  | >100 µM | >100 µM | 100 µM | 
CCOC(=O)C1=C(C)NC(=O)NC1/C=C/c1ccccc1 (centres unmarked) [Compound 4h, Ethyl 6-methyl-2-oxo-4-[(E)-2-phenylethenyl]-1,2,3,4-tetrahydropyrimidine-5-carboxylate] | >100 µM | > 100 µM | > 100 µM | ⩾100 μM | >100 µM | 100 µM | MCC reported with the varicella zoster virus EC50 [8]: 100 µM
CCOC(=O)C1=C(C)NC(=O)NC1c1cccs1 (centres unmarked) [Compound 4i, Ethyl 6-methyl-2-oxo-4-(thiophen-2-yl)-1,2,3,4-tetrahydropyrimidine-5-carboxylate] |  |  |  | >100 µM | >100 µM |  | 
CCOC(=O)C1=C(C)NC(=O)NC1 [Compound 4j, Ethyl 6-methyl-2-oxo-1,2,3,4-tetrahydropyrimidine-5-carboxylate] |  |  |  | >100 µM | >100 µM |  | 
CCOC(=O)C1=C(C)NC(=O)NC1C (centres unmarked) [Compound 4k, Ethyl 4,6-dimethyl-2-oxo-1,2,3,4-tetrahydropyrimidine-5-carboxylate] |  |  |  | >100 µM | >100 µM |  | 
CCOC(=O)C1=C(C)NC(=O)NC1CC(C)C (centres unmarked) [Compound 4l, Ethyl 6-methyl-4-(2-methylpropyl)-2-oxo-1,2,3,4-tetrahydropyrimidine-5-carboxylate] | >100 µM |  |  | >100 µM | >100 µM | >100 µM | 
CCCCCCCCCCCC1NC(=O)NC(C)=C1C(=O)OCC (centres unmarked) [Compound 4m, Ethyl 6-methyl-2-oxo-4-undecyl-1,2,3,4-tetrahydro-5-pyrimidinecarboxylate] | 100 µM | > 100 µM | > 100 µM | >100 µM | >100 µM |  | activity against PTV in HeLa cells (in words) [9]: inactive; activity against Punta Toro virus (in words) [10]: selective and potent inhibitor; also recorded: selective and potent antiviral activity; also recorded: potent and selective inhibitor; times more potent than dextran sulphate (DS-10000) [10]: approximately 7 times; times more potent than mycophenolic acid [10]: approximately 7 times; antiviral activity against the virus panel (in words) [5]: did not have antiviral activity against all other viruses tested; activity against Rift Valley fever virus (in words) [11]: negligible; reduction in RVFV-induced CPE [11]: about 40%; 50% inhibition of RVFV at 100 μM (in words) ([11]; 100 μM): unable to achieve 50% inhibition; toxicity in the other cell lines tested (in words) [12]: no toxicity
CCOC(=O)C1C2NC(=O)NC1(C)Oc1ccccc12 (centres unmarked) [Compound 5, Ethyl 9-methyl-11-oxo-8-oxa-10,12-diazatricyclo[7.3.1.0^2,7]trideca-2,4,6-triene-13-carboxylate] | >100 µM | > 100 µM | > 100 µM | >100 µM | >100 µM | >100 µM | 
NC(=O)c1ncn([C@@H]2O[C@H](CO)[C@@H](O)[C@H]2O)n1 [Ribavirin, reference compound] |  |  | > 250 µM |  |  | >250 µM | 
